Results as given in US7179825B2, “Retinoic acid mimetic anilides” (Janssen Pharmaceutica N.V., priority 1997, dated 2007).

These molecules were tested on metabolism of retinoic acid in human breast cancer cells (assay: Inhibition of retinoic acid (RA) metabolism (Example C.1)). Settings: MCF7; MCF-7 human breast cancer cells, 3H-RA as substrate; concentration needed to reduce the amount of metabolites to 50% of the control.
Assay type: cell-based
Description: (§1) The property to delay the metabolism of retinoic acid can be evidenced in various in vitro and in vivo experiments. A particular in vitro procedure is described in example C.1 and tests the inhibitory activity of the compounds of formula (I) on the metabolism of retinoic acid in human breast cancer cells. The compounds of the present invention were also effective in suppressing induced vaginal keratinization effects in ovariectomized rats as is described in example C.2.
Inhibition of Retinoic Acid (RA) Metabolism
MCF-7 human breast cancer cells were grown as stock cultures according to art-known protocols. One day before the experiment, RA is added to the stock cultures to stimulate RA-metabolism. At the start of the experiment, cell suspensions were incubated in a tissue culture medium containing ^3H-RA as the substrate. Different concentrations of the test compound (dissolved in 1% DMSO) were added to the incubation mixtures, and at the end of the incubation, the unmetabolized RA is separated from its polar metabolites. The fraction containing the polar ^3H-labelled metabolites was collected and counted in a scintillation counter. For each experiment, a control and a blank incubation were run in parallel. Table 22 list the IC50 value (defined as the concentration in M needed to reduce the amount of metabolites to 50% of the control).

| SMILES | IC50 |
| --- | --- |
| CC(C)C(c1ccc(NC(N)=S)cc1)n1ccnc1 (racemic) [Compound 699, (±)-4-[1-(1H-imidazol-1-yl)-2-methylpropyl]phenylthiourea] | 9.69 nM |

Same assay, conditions: MCF-7 human breast cancer cells, 3H-RA as substrate; concentration needed to reduce the amount of metabolites to 50% of the control

| SMILES | IC50 |
| --- | --- |
| CC(C(c1ccc(NC(=O)Cc2ccc(O)c(Cl)c2)cc1)n1cncn1)N(C)C (mixture of isomers) [Compound 299] | 0.772 nM |
| COc1ccc(CC(=O)Nc2ccc(C(C(C)N(C)CCc3ccccc3)n3ccnc3)cc2)cc1OC (mixture of isomers) [Compound 415] | 2.64 nM |
| Cc1cncn1C(c1ccc(Cl)cc1)c1ccc(NC(=O)C=C(c2ccccc2)c2cccc(Cl)c2)cc1 (mixture of isomers) [Compound 693] | > 100 nM |
| CCC(CC)C(c1ccc(NC(=O)COc2ccccc2OC)cc1)n1cncn1 (racemic) [Compound 12] | 0.0365 nM |
| CCC(CC)C(c1ccc(NC(=O)C(O)c2ccc(Cl)cc2)cc1)n1cncn1 (racemic) [Compound 17, (±)-A1-4-chloro-N-[4-[2-ethyl-1-(1H-1,2,4-triazol-1-yl)butyl]phenyl]-α-hydroxybenzeneacetamide] | 0.999 nM |
| CCC(CC)C(c1ccc(NC(=O)Cc2ccc(OC)nc2)cc1)n1ccnc1 (racemic) [Compound 51] | 0.895 nM |
| CCC(CC)C(c1ccc(NC(=O)Cc2ccc(OC)c(O)c2)cc1)n1ccnc1 (racemic) [Compound 108] | 0.0234 nM |
| CCC(CC)C(c1ccc(NC(=O)Cc2cc(OC)cc(OC)c2)cc1)n1ccnc1 (racemic) [Compound 119] | 0.94 nM |
| CCC(CC)C(c1ccc(NC(=O)Cc2cc(OC)ccc2OCc2ccccc2)cc1)n1ccnc1 (racemic) [Compound 120] | 3.88 nM |
| CCC(CC)C(c1ccc(NC(=O)Cc2cc(C)ccc2O)cc1)n1ccnc1 (racemic) [Compound 124] | 0.0397 nM |
| Cc1cnc(C(=O)Nc2ccc(C(C(C)C)n3ccnc3)cc2)cn1 (racemic) [Compound 225] | 82.8 nM |
| Cc1ccoc1C(=O)Nc1ccc(C(C(C)C)n2ccnc2)cc1 (racemic) [Compound 226] | 16.9 nM |
| C/C(=C\c1ccccc1)C(=O)Nc1ccc(C(c2ccc3c(c2)C(C)(C)CCC3(C)C)n2ccnc2)cc1 (racemic) [Compound 491] | 1.84 nM |
| O=C(C=C(c1ccccc1)c1cccnc1)Nc1ccc(C(c2ccc(Cl)cc2)n2ccnc2)cc1 (racemic) [Compound 516] | > 1000 nM |
| O=C(C=C(c1ccccc1)c1cccnc1)Nc1ccc(C(c2ccc(F)cc2)n2ccnc2)cc1 (racemic) [Compound 517] | 36.9 nM |
| O=C(/C=C/c1ccccc1)Nc1ccc(C(c2cccc(C(F)(F)F)c2)n2cncn2)cc1 (racemic) [Compound 617] | 151 nM |
| CC(C)C(c1ccncc1)c1ccc(NC(=O)Cc2ccc(Cl)cc2)cc1 (racemic) [Compound 685] | 90.8 nM |
| CC(C)C(c1ccc(NC(=O)Cc2ccc(Cl)cc2)cc1)c1ccccn1 (racemic) [Compound 687] | > 100 nM |
| O=C(Nc1ccc(C(c2ccc(Cl)cc2)n2ccnc2)cc1)Nc1cccc(F)c1 (racemic) [Compound 731] | > 100 nM |
| CCC(c1ccc(NC(=O)Cc2ccc(Cl)cc2)cc1)(C(C)C)n1ccnc1 (racemic) [Compound 755] | 4.35 nM |
| CC(C)C(c1ccc(NC(=O)Cc2ccc(N)cc2)cc1)n1ccnc1 (single isomer, unassigned) [Compound 147] | 33 nM |
| CC(C)C(c1ccc(NC(=O)Cc2ccc(N=[N+]=[N-])c(I)c2)cc1)n1ccnc1 (single isomer, unassigned) [Compound 260] | 2.43 nM |
| CC(C(c1ccc(NC(=O)Cc2ccc(O)c(Cl)c2)cc1)n1ccnc1)N(C)C (single isomer, unassigned) [Compound 303] | 3.26 nM |
| COc1ccc(CC(=O)Nc2ccc(C(C(C)N(C)C)n3ccnc3)cc2)cc1Cl (single isomer, unassigned) [Compound 305] | 0.0829 nM |
| COc1ccc(CCCC(=O)Nc2ccc(C(C(C)N(C)C)n3ccnc3)cc2)cc1OC (single isomer, unassigned) [Compound 336] | 1.91 nM |
| CCC(C(c1ccc(NC(=O)Cc2ccc(OC)c(OC)c2)cc1)n1ccnc1)N(C)C (single isomer, unassigned) [Compound 388] | 0.829 nM |

Each molecule was assayed on Ovariectomized rats (assay: Vaginal keratinization test on ovariectomized rats (Example C.2)). Settings: estradiol undecylate induced keratinization, per os once daily on days 1-3, active dose = 50% of rats show complete suppression.
Assay type: in vivo
Description: as §1
“Vaginal Keratinization Test on Ovariectomized Rats”
Ovariectomized rats were injected subcutaneously with a sesame oil solution containing 100 μg of estradiol undecylate in a volume of 0.1 ml per 100 g body weight and control animals were injected with sesame oil. On day one, two and three, test animals were treated once daily with a per os dose of the test compound and control animals with the drug vehicle (PEG 200). One day after the last treatment, the animals were sacrificed and their vaginas were processed for histological evaluation according to the method described in J. Pharmacol. Exp. Ther. 261(2), 773–779 (1992). A dose at which 50% of the tested rats show complete suppression of the estradiol undecylate induced keratinization effects is defined as an active dose. Table 23 lists the lowest active dose (LAD in mg/kg) of the compounds of formula (I) which were tested.

| SMILES | LAD (lowest active dose) |
| --- | --- |
| CCCCCC(C)C(c1ccc(NC(=O)/C(C)=C/c2ccccc2)cc1)n1ccnc1 (single isomer, unassigned) [Compound 487] | >5.00 mg/kg |
| CCCCCC(CC)C(c1ccc(NC(=O)C(C)=Cc2ccccc2)cc1)n1ccnc1 (single isomer, unassigned) [Compound 494] | >2.50 mg/kg |
| CC(=O)Nc1ccc(C(C(C)N(C)C)n2ccnc2)cc1.O (single isomer, unassigned) [Compound 551] | >2.50 mg/kg |
| CC(=O)Nc1ccc(C(C(C)N(C)C)n2ccnc2)cc1 (single isomer, unassigned) [Compound 552] | >2.50 mg/kg |
| CCN(CC)C(C)C(c1ccc(NC(C)=O)cc1)n1ccnc1 (single isomer, unassigned) [Compound 554] | 2.50 mg/kg |
| CCN(CC)C(C)C(c1ccc(NC(C)=O)cc1)n1ccnc1 (single isomer, unassigned) [Compound 555] | >2.50 mg/kg |
| CCC(C(c1ccc(NC(C)=O)cc1)n1ccnc1)N(C)C (single isomer, unassigned) [Compound 557] | >5.00 mg/kg |
| CC(=O)Nc1ccc(C(C(C)N(C)C)n2cncn2)cc1 (single isomer, unassigned) [Compound 627] | >2.50 mg/kg |
| CC(C(c1ccc(NC(=O)Cc2ccc(Cl)cc2)cc1)n1cncn1)N(C)C (single isomer, unassigned) [Compound 628] | >2.50 mg/kg |
| COc1ccc(CCC(=O)Nc2ccc(C(C(C)N(C)C)n3cncn3)cc2)cc1OC (single isomer, unassigned) [Compound 629] | >2.50 mg/kg |
| COc1cc(CC(=O)Nc2ccc(C(C(C)N(C)C)n3cncn3)cc2)cc(OC)c1OC (single isomer, unassigned) [Compound 630] | >2.50 mg/kg |
| C/C(=C\c1ccccc1)C(=O)Nc1ccc(C(C(C)N(C)C)n2cncn2)cc1 (single isomer, unassigned) [Compound 632] | >2.50 mg/kg |
| CCN(CC)C(C)C(c1ccc(NC(C)=O)cc1)n1cncn1 (single isomer, unassigned) [Compound 647] | >5.00 mg/kg |
| CC(C(c1ccc(NC(=S)Nc2nc3ccccc3s2)cc1)n1ccnc1)N(C)C (single isomer, unassigned) [Compound 704] | >5.00 mg/kg |
| COc1ccc(NC(=O)Nc2ccc(C(C(C)N(C)C)n3cncn3)cc2)cc1OC (single isomer, unassigned) [Compound 717] | >2.50 mg/kg |
| COc1ccc(NC(=O)Nc2ccc(C(C(C)N(C)C)n3cncn3)cc2)cc1OC (single isomer, unassigned) [Compound 720] | >2.50 mg/kg |
| CC(C(c1ccc(NC(=O)Cc2ccc(Cl)cc2)cc1)n1cncn1)N(C)C (single isomer, unassigned) [Compound 784] | >5.00 mg/kg |
| CC(C(c1ccc(NC(=O)Cc2ccc(Cl)cc2)cc1)n1cncn1)N(C)C (single isomer, unassigned) [Compound 785] | 5.00 mg/kg |
| CCC(CC)C(c1ccc(NC(=O)c2ccccc2)cc1)n1cncn1 (stereo not shown) [Compound 3] | >2.50 mg/kg |
| CCC(CC)C(c1ccc(NC(=O)CN(C)C)cc1)n1ccnc1 (stereo not shown) [Compound 55] | >2.50 mg/kg |
| CCOc1ccc(CCC(=O)Nc2ccc(C(C(C)N(C)C)n3ccnc3)cc2)cc1 (stereo not shown) [Compound 348] | >2.50 mg/kg |
| COc1ccc(CC(=O)Nc2ccc(C(CN(C)C)n3ccnc3)cc2)cc1OC (stereo not shown) [Compound 380] | >2.50 mg/kg |
| CCOC(=O)CC(c1ccc(NC(=O)Cc2ccc(OC)c(OC)c2)cc1)n1ccnc1 (stereo not shown) [Compound 395] | >5.00 mg/kg |
| COc1ccc(CC(=O)Nc2ccc(C(CCO)n3ccnc3)cc2)cc1OC (stereo not shown) [Compound 403] | >5.00 mg/kg |
| CCOC(=O)CC(c1ccc(NC(C)=O)cc1)n1ccnc1 (stereo not shown) [Compound 560] | >5.00 mg/kg |
| CCOC(=O)C(C)C(c1ccc(NC(=O)Cc2ccc(Cl)cc2)cc1)n1cncn1 (stereo not shown) [Compound 624] | >2.50 mg/kg |
| CCC(C)C(c1ccc(NC(=O)Cc2ccc(Cl)cc2)cc1)n1cncn1 (stereo not shown) [Compound 626] | 2.50 mg/kg |
| CCC(c1ccc(NC(C)=O)cc1)(C(C)C)n1ccnc1 (stereo not shown) [Compound 754] | 10.00 mg/kg |
